These results are taken from patent publication US8722714B2, “Oxazolidine derivatives as NMDA antagonists” (The Honk Kong University of Science and Technology, priority 2008, dated 2014).

In data set [1] the test system is rat primary cortical neurons. Kind of data set: Neuron survival assay against NMDA insult (LDH release). The settings on record: NMDA 20 μM; for protection of rat primary cortical neurons from NMDA insults (LDH release, fold change vs DMSO): compounds 10-30 μg/ml, 11 DIV; for cell death (LDH release, cell cytotoxicity vs DMSO): compound 10 μg/mL, DIV 11. Type of data set: cell-based. Here is the method:
Primary cortical and hippocampal neurons were prepared from embryonic day 18 (E18) Sprague-Dawley rats. Neurons were plated on 24-well plate (TPP, Corning) at a density of 2×10^5 cells per well using Neurobasal medium (Invitrogen) supplemented with 2% B27 (Invitrogen). Neurons at 11-12 days in vitro (12 DIV) were subjected to drug treatment. Neurons were pretreated with the test compound for 2 hours prior to NMDA treatment. 0.1 μM (+)-MK-801 Hydrogen Maleate (Sigma) was added as a positive control. Briefly, the neurons were rinsed with Locke's solution (5 mM potassium chloride, 128 mM sodium chloride, 2.7 mM calcium chloride, 1 mM di-sodium hydrogen orthophosphate, 5 mM HEPES and 10 mM glucose in Milli-Q water) without Mg^2+, and incubated with addition of glycine (10 μM) for 15 minutes. After the incubation, the neurons were co-treated with the test compound (dissolved in Locke's plus glycine solution) and NMDA (20 μM; Sigma) for 20 minutes. Neurons were rinsed with Locke's plus Mg^2+ and replaced with fresh growth medium. The cell death was assayed and quantified using the lactate dehydrogenase release assay (Roche) after 24 hours.
Embryonic rat cortical neurons (11 DIV) were treated with NMDA (20 μM) in the absence or presence of the LC series of compounds (10-30 μg/ml). […] LDH release in the medium after overnight incubation was measured and fold change was calculated when compared to the solvent control, DMSO.
Embryonic rat cortical neurons (DIV 11) were treated with NMDA (20 μM) in the absence or presence of LC-01 or LC-02 (μg/mL). LDH release in the medium after overnight incubation was measured and cell cytotoxicity was calculated in percentage when compared to the solvent control, DMSO.
Embryonic rat cortical neurons (DIV 11) were treated with NMDA (20 μM) in the absence or presence of LC-06 (μg/mL). LDH release in the medium after overnight incubation was measured and cell cytotoxicity was calculated in percentage when compared to the solvent control, DMSO.
Embryonic rat cortical neurons (11 DIV) were treated with NMDA (20 μM) in the absence or presence of LC-24 or LC-25 (μg/mL). LDH release in the medium after overnight incubation was measured and cell cytotoxicity was calculated in percentage when compared to solvent control (DMSO).

The next data set concerns NMDA receptor. The experiment in a line: Whole-cell patch clamp of NMDA-induced current in hippocampal neurons. Type of data set: cell-based, rat. The settings on record: compound 500 uM co-applied with NMDA 200 uM. The protocol:
Hippocampal neurons were prepared from embryonic day 18 Sprague-Dawley rats. After the hippocampus had been removed from the brain, isolated cells were plated onto Poly d-Lysine (PDL) (P0899, Sigma)-coated 35 mm dishes (153066, NUNC) at a density of 3×10^5 cell per plate using Neurobasal Medium (NB) (21103-049, Gibco) with B27 supplement (17504-044, Gibco), penicillin/streptomycin (15140, Gibco) and 1 mM L-glutamine (25030, Gibco). The cell culture was incubated at 37° C. in a humidified atmosphere of 5% CO2 in air. Half of the medium was changed with NB, B27 and 50 μM L-glutamine every 2 to 3 days. On day 12 in vitro (12 DIV), whole-cell patch clamp was performed. The internal solution contained 120 mM cesium chloride, 20 mM tetraethylammonium chloride, 2 mM magnesium chloride, 1 mM calcium chloride and 10 mM HEPES (pH 7.2). The external solution contained 137 mM sodium chloride, 1 mM sodium bicarbonate, 0.34 mM sodium phosphate dibasic, 5.37 mM potassium chloride, 0.44 mM potassium phosphate monobasic, 2.5 mM HEPES (pH 7.4) and 22.2 mM glucose. Samples mixed with 50 μM NMDA (M3262, Sigma) were arranged in linear array of up to 8 individual controlled pipes (List Medical, Germany) which were connected to solution reservoirs. Memantine (10 μM, M9292, Sigma) was used as a positive control. Pipettes were fire-polished to produce a pipette resistance of 3-5 MΩ. Holding potential of patched cells was kept at −80 mV and currents were recorded using Axopatch-200B amplifier (Axon Instruments, USA). Tetrodotoxin (5 μM) and bicuculline methiodide (20 μM) (0109, Tocris) were present in the bath solution to block synaptic transmission mediated by voltage-gated sodium channels and […], respectively. Data was analyzed by pClamp9 software and percentage of inhibition on NMDA-induced current was represented in comparison to solvent control.
The NMDA receptor is a gated ion channel, which allows inflow of current during a nerve impulse. Antagonists to the receptor would prevent the inflow of current.
In FIG. 1A, hippocampal neurons from embryonic day 18 rats were isolated, trypsinized, plated onto 35-mm plates at a density of 3×10^4 cells/plate and cultured in Neurobasal medium (NB) supplemented with B27 nutrient. Rat hippocampal neurons (10-14 DIV) were treated with NMDA (50 μM) in the absence or presence of the compound LC-02 (10 μg/mL). Data is presented as % of NMDA-induced current. DMSO is the solvent control.
In FIG. 1B, NMDA antagonistic effect of LC-02 on current responses of a single hippocampal neuron. NMDA (200 uM) was applied for 2.5 sec every 30 sec but these inter-response intervals have been deleted from the above figure for a better resolution of the kinetics of individual responses (blank space in trace). LC-02 (500 uM) was co-applied with NMDA.
In FIG. 1C, effects of LC-02 on pooled NMDA current responses. Normalized peak and plateau currents are shown in the absence (DMSO) and presence of LC-02.
In FIG. 8, (a) NMDA antagonistic effect of LC-06 on current responses of a single hippocampal neuron. NMDA (200 uM) was applied for 2.5 sec every 30 sec but these inter-response intervals have been deleted from the above figure for a better resolution of the kinetics of individual responses (blank space in trace). LC-06 (500 uM) was co-applied with NMDA. […] (b) Effects of LC-06 on pooled NMDA current responses. Normalized peak and plateau currents are shown in the absence (DMSO) and presence of LC-06.
In FIG. 9, (a) NMDA antagonistic effect of LC-24 on current responses of a single hippocampal neuron. NMDA (200 uM) was applied for 2.5 sec every 30 sec but these inter-response intervals have been deleted from the above figure for a better resolution of the kinetics of individual responses (blank space in trace). LC-24 (500 uM) was co-applied with NMDA. […] (b) Effects of LC-24 on pooled NMDA current responses. Normalized peak and plateau currents are shown in the absence (DMSO) and presence of LC-24. […]

Turning to `CCCC1(CCC)O[C@@H](CC)N[C@H]1C(C)CC` (stereo partly shown) [LC-14], the “protection of rat primary cortical neurons from NMDA insults (LDH release, fold change vs DMSO)” value (“protection … (LDH release, fold change vs DMSO)” for short) in data set [1] was “weaker neuroprotective effects”.

In the case of `CCCC1(CCC)O[C@@H](c2ccccc2)N[C@H]1C(C)CC` (stereo partly shown) [LC-16], the “protection … (LDH release, fold change vs DMSO)” value in data set [1] is “weaker neuroprotective effects”.

Take `CCC[C@H]1N[C@@H](C(C)CC)C(CCC)(CCC)O1` (stereo partly shown) [LC-15]: in data set [1], the “protection … (LDH release, fold change vs DMSO)” value is “weaker neuroprotective effects”.

For `CCC(C)[C@@H]1N[C@@H](CC)OC1(CC)CC` (stereo partly shown) [LC-09], in data set [1], the “protection … (LDH release, fold change vs DMSO)” value is on record as “weaker neuroprotective effects”. As for `CC[C@@H]1N[C@@H](CC(C)C)C(CC)(CC)O1` [LC-01], in data set [1], the “protection … (LDH release, fold change vs DMSO)” value is “significantly protected” and the “cell death (LDH release, cell cytotoxicity vs DMSO)” value is reported as “cell death was markedly reduced”. With `CCC[C@@H]1N[C@@H](C(C)CC)C(CC)(CC)O1` (stereo partly shown) [LC-11], the “protection … (LDH release, fold change vs DMSO)” value in data set [1] is “weaker neuroprotective effects”. For the compound `CCC(C)[C@@H]1N[C@H](CC)OC1(CC)CC` (stereo partly shown) [LC-10], the “protection … (LDH release, fold change vs DMSO)” value in data set [1] is given as “weaker neuroprotective effects”. For `CCC[C@H]1N[C@@H](Cc2ccccc2)C(CC)(CC)O1` [LC-25], in data set [1], the “protection … (LDH release, fold change vs DMSO)” value was “significantly protected” and the “cell death (LDH release, cell cytotoxicity vs DMSO)” value was “cell death was markedly reduced”. Further, the “pooled NMDA current responses (normalized peak and plateau currents)” value with NMDA receptor (vs DMSO, n=6) was “significantly inhibits NMDA-induced current”. In addition, in the data set on NMDA receptor (single hippocampal neuron), the “recovery of NMDA-induced current after compound was washed out” value was “Partial recovery of NMDA-induced current”. With `CCC[C@H]1N[C@@H](C(C)CC)C(CC)(CC)O1` (stereo partly shown) [LC-12], the “protection … (LDH release, fold change vs DMSO)” value in data set [1] is reported as “weaker neuroprotective effects”.
